Counter-ions that a name gives are not always drawn.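 1) Cells in 96-well plates. 2) Compound, 48 h, 5 concentrations. 3) Linear interpolation between surrounding doses. 4) Unreached endpoint = highest concentration. The concentration for 50% growth inhibition is given as GI50.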 The source made the active and inactive calls. No stated cut-off is given here; in the data, active = GI50 up to about 1.1 µM and inactive = higher.
Legend:
Assay in all cases: DTP human tumour cell line panel, 48 h
SK-MEL-28 = system: SK-MEL-28
HT-29 = system: HT-29
LOX IMVI = system: LOX IMVI
MDA-N = system: MDA-N
MCF7 = system: MCF7
ACHN = system: ACHN
A498 = system: A498
OVCAR-4 = system: OVCAR-4
SF-539 = system: SF-539
SK-OV-3 = system: SK-OV-3
EKVX = system: EKVX
SNB-19 = system: SNB-19
Malme-3M = system: Malme-3M
BT-549 = system: BT-549
DU-145 = system: DU-145
OVCAR-3 = system: OVCAR-3
A549 = system: A549
UO-31 = system: UO-31
PC-3 = system: PC-3
SNB-75 = system: SNB-75

Measured: GI50

Clc1ccc2c(c1)N(CCCN1CCCC13CCCCC3)c1ccccc1S2
inactive: SK-MEL-28 14.9 µM | HT-29 4.33 µM | LOX IMVI 12.4 µM | MDA-N 13.1 µM | MCF7 14.3 µM | ACHN 20.3 µM | A498 16 µM | OVCAR-4 15.4 µM | SF-539 17.2 µM | SK-OV-3 20.8 µM | EKVX 11.9 µM | SNB-19 13.7 µM | Malme-3M 14.2 µM | BT-549 14.9 µM | DU-145 16.6 µM | OVCAR-3 14.1 µM | A549 17.3 µM | UO-31 8.38 µM | PC-3 8.04 µM

Cc1ccc2nc(CC(=O)c3ccc4ccccc4c3)c(O)nc2c1
inactive: SK-MEL-28 > 100 µM | HT-29 66.2 µM | LOX IMVI > 100 µM | MDA-N > 100 µM | MCF7 > 100 µM | ACHN > 100 µM | A498 > 100 µM | SNB-75 > 100 µM | OVCAR-4 > 100 µM | SF-539 > 100 µM | SK-OV-3 > 100 µM | EKVX > 100 µM | SNB-19 > 100 µM | Malme-3M > 100 µM | BT-549 > 100 µM | DU-145 > 100 µM | OVCAR-3 > 100 µM | A549 > 100 µM | UO-31 > 100 µM | PC-3 > 100 µM

CCOC(=O)c1c(SCCN2CCCC2)n(-c2ccccc2)c(=S)n(-c2ccccc2)c1=O
inactive: SK-MEL-28 2.75 µM | HT-29 4.89 µM | LOX IMVI 1.82 µM | MDA-N 2.36 µM | MCF7 1.19 µM | ACHN 1.72 µM | A498 10.4 µM | SNB-75 6.93 µM | OVCAR-4 13.1 µM | SF-539 2.38 µM | SK-OV-3 18.1 µM | EKVX 13.9 µM | SNB-19 17.4 µM | Malme-3M 1.56 µM | BT-549 5.37 µM | DU-145 1.68 µM | OVCAR-3 1.78 µM | A549 4.02 µM | PC-3 1.66 µM

Br/C(=N\N=c1/nn[nH][nH]1)c1ccncc1
inactive: SK-MEL-28 > 100 µM | HT-29 > 100 µM | LOX IMVI > 100 µM | MDA-N > 100 µM | MCF7 > 100 µM | ACHN > 100 µM | A498 > 100 µM | SNB-75 > 100 µM | OVCAR-4 > 100 µM | SF-539 > 100 µM | SK-OV-3 > 100 µM | EKVX > 100 µM | SNB-19 > 100 µM | Malme-3M > 100 µM | BT-549 > 100 µM | DU-145 > 100 µM | OVCAR-3 > 100 µM | A549 > 100 µM | PC-3 > 100 µM

CSc1c(C#N)c(=O)[nH]c2[nH]nc(C)c12
inactive: SK-MEL-28 > 100 µM | HT-29 > 100 µM | LOX IMVI > 100 µM | MDA-N > 100 µM | MCF7 > 100 µM | A498 > 100 µM | SNB-75 > 100 µM | OVCAR-4 > 100 µM | SF-539 > 100 µM | SK-OV-3 > 100 µM | EKVX > 100 µM | SNB-19 > 100 µM | Malme-3M > 100 µM | BT-549 > 100 µM | DU-145 > 100 µM | OVCAR-3 > 100 µM | A549 > 100 µM | UO-31 > 100 µM | PC-3 > 100 µM

COc1ccc(-c2c3c(n(C4OC(CO)C(O)C(O)C4O)c(=S)c2C#N)CC(C)(C)CC3=O)cc1 (stereo not drawn)
inactive: SK-MEL-28 > 100 µM | HT-29 > 100 µM | LOX IMVI > 100 µM | MDA-N > 100 µM | MCF7 > 100 µM | ACHN > 100 µM | A498 > 100 µM | SNB-75 96.6 µM | OVCAR-4 > 100 µM | SF-539 > 100 µM | SNB-19 > 100 µM | Malme-3M > 100 µM | BT-549 > 100 µM | DU-145 > 100 µM | OVCAR-3 > 100 µM | A549 > 100 µM | UO-31 > 100 µM | PC-3 > 100 µM

CSc1nc(NC2OC(COC(C)=O)C(OC(C)=O)C(OC(C)=O)C2OC(C)=O)c(/N=C\C=N/c2c(NC3OC(COC(C)=O)C(OC(C)=O)C(OC(C)=O)C3OC(C)=O)nc(SC)n(C)c2=O)c(=O)n1C (stereo not drawn)
inactive: SK-MEL-28 > 100 µM | HT-29 > 82.2 µM | LOX IMVI > 95.3 µM | MDA-N > 100 µM | MCF7 > 100 µM | ACHN 83.9 µM | A498 38.5 µM | SNB-75 12.2 µM | OVCAR-4 > 100 µM | SF-539 38 µM | SK-OV-3 36.1 µM | EKVX > 100 µM | SNB-19 38.6 µM | Malme-3M 81.5 µM | BT-549 > 65.6 µM | DU-145 > 100 µM | OVCAR-3 > 15.5 µM | A549 > 100 µM | UO-31 > 100 µM | PC-3 > 100 µM

COc1cc(CSc2ccc(O)cc2)cc(O)c1O
inactive: SK-MEL-28 46.2 µM | HT-29 22.2 µM | LOX IMVI 36.2 µM | MDA-N 26.7 µM | MCF7 17.6 µM | ACHN 28.1 µM | A498 > 100 µM | SNB-75 32.1 µM | SF-539 29.9 µM | SK-OV-3 > 10 µM | EKVX 85.7 µM | SNB-19 37 µM | Malme-3M 37.6 µM | BT-549 18.3 µM | DU-145 44.5 µM | OVCAR-3 26.2 µM | A549 46.7 µM | UO-31 27.2 µM | PC-3 49.3 µM

O=C(O)Cn1ccc(=O)c2c([N+](=O)[O-])cccc21
inactive: SK-MEL-28 > 100 µM | HT-29 > 100 µM | MDA-N > 100 µM | MCF7 > 100 µM | ACHN > 100 µM | A498 > 100 µM | SNB-75 > 100 µM | SF-539 > 100 µM | SK-OV-3 > 100 µM | SNB-19 > 100 µM | Malme-3M > 100 µM | BT-549 > 100 µM | DU-145 > 100 µM | OVCAR-3 > 100 µM | A549 > 100 µM | UO-31 > 100 µM | PC-3 > 100 µM

NCCc1cc(O)c(O)cc1O [OXIDOPAMINE HYDROCHLORIDE]
inactive: SK-MEL-28 > 100 µM | HT-29 32.3 µM | MDA-N 22.6 µM | MCF7 25.3 µM | ACHN 20.9 µM | A498 > 100 µM | SNB-75 23.7 µM | SF-539 19.2 µM | SK-OV-3 > 100 µM | EKVX 26.6 µM | SNB-19 32.5 µM | Malme-3M > 100 µM | BT-549 16.6 µM | DU-145 17.7 µM | OVCAR-3 55.7 µM | A549 35 µM | UO-31 25.2 µM | PC-3 33.1 µM

Source: ChEMBL document CHEMBL1201862, “PubChem BioAssay data set” (2004)
